{"source": "ChEMBL document CHEMBL1667723", "about": "“Biotransformation of turmerones by Aspergillus niger” (J Nat Prod, 2011)"}
{"molecular_target": "T1, Acetylcholinesterase (Homo sapiens, UniProt P22303)", "T1 sequence (P22303 whole entry)": "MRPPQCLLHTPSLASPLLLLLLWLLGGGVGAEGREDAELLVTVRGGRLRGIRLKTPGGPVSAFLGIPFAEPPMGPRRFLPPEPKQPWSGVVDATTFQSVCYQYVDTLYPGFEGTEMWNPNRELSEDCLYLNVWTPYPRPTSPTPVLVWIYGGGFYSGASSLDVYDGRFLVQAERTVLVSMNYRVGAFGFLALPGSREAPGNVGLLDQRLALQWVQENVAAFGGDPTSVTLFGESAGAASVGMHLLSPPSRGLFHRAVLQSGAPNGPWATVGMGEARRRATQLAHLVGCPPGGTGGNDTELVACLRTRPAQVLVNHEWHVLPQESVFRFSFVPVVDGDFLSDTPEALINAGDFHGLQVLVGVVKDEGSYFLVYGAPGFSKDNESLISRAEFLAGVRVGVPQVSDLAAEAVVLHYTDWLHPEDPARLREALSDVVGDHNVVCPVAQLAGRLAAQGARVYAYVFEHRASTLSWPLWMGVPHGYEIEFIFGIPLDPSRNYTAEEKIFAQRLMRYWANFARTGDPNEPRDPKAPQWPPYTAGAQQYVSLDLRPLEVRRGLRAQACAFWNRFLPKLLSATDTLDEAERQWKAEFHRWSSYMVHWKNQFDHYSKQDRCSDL", "test": "Inhibition of human erythrocytes acetylcholinesterase after 15 mins", "units": {"IC50": "µM"}}
{"compound": "CC(C)=CC(=O)C[C@H](C)c1ccc(C)cc1", "IC50": 191}
{"compound": "Cc1ccc([C@@H](C)CC(=O)CC(C)C)cc1", "IC50": 81.5}
{"molecular_target": "T1, Acetylcholinesterase", "test": "Inhibition of human erythrocytes acetylcholinesterase after 15 mins at 250 uM relative to control", "units": {"inhibition": "%"}}
{"compound": "C/C(=C\\C(=O)C[C@](C)(O)c1ccc(C(=O)O)cc1)CO", "inhibition": 34.3}
{"compound": "CC(C)=CC(=O)C[C@](C)(O)c1ccc(C(=O)O)cc1", "inhibition": 41.9}
{"compound": "Cc1coc(C[C@](C)(O)c2ccc(C(=O)O)cc2)c1", "inhibition": 33.6}
{"compound": "CC(C)(O)CC(=O)CC(C)(O)c1ccc(C(=O)O)cc1", "note": "(single isomer, unassigned; (+))", "inhibition": 37.6}
{"compound": "C/C(=C\\C(=O)C[C@H](C)c1ccc(C(=O)O)cc1)CO", "inhibition": 31}
